Assay results as given in patent publication US20030055023A1, “Formulations containing etomidate and a sulfoalkyl ether cyclodextrin” (priority 2001, published 2003).
In brackets after ≈: the same amount, converted by molar mass.

Test: Solubility of etomidate
Format: physicochemical
Conditions: aqueous buffer
Text: . […] . No. 4,289,783 to Mesens).
By “therapeutic agent/SAE-CD complex” is generally meant a clathrate or inclusion complex of a sulfoalkyl ether cyclodextrin derivative of the formula (1) and a therapeutic agent. By “complexed” is meant “being part of a clathrate or inclusion complex with”, i.e., a complexed therapeutic agent is part of a clathrate or inclusion complex with a sulfoalkyl ether cyclodextrin derivative. By “major portion” is meant at least about 50% by weight of the therapeutic compound. Thus, a formulation according to the present invention will contain a therapeutic agent of which more than about 50% by weight is complexed with an SAE-CD. In various embodiments, preferably greater than 60% by weight, more preferably greater than 75% by weight, even more preferably greater than 90% by weight, and most preferably greater than 95% by weight of the therapeutic agent will remain complexed with an SAE-CD while in the pharmaceutical formulation. The actual percent of drug that is complexed will vary according to the complexation equilibrium constant characterizing the complexation of a specific SAE- CD to a specific drug. […] . In this case the amount complexed is only 75%. Generally, the greater the percentage of drug that is complexed, the more effectively the SAE-CD will reduce pain on injection. […]

Structure (SMILES): CCOC(=O)c1cncn1[C@H](C)c1ccccc1 [Etomidate, (R)-(+)ethyl 1-(1-phenylethyl)-1H-imidazole-5-carboxylate]
- solubility (0.025 M phosphate buffer at pH 7.0): ~450 µg/mL (≈ 1840 µM)
- solubility (25mM phosphate buffer, pH 7.4): 450 µg/mL (≈ 1840 µM)
